“Also recorded” adds a separate entry of the source. Bridge positions count the residues as written; N and C are the ends. Ends that are not written are not given here.
Columns and labels:
mice [1] = assay: Open-field test (spontaneous activity); type: in vivo, mouse
Text: The open-field apparatus consisted of a white Plexiglas box (40×40×30 cm) with 16 squares (10×10 cm) painted on the floor (12 outer and 4 inner). Each mouse was placed in the center of the apparatus to initiate a 15-min test session. The number of entrances to the inner squares, time (min) spent in the inner squares, and total distance moved within the field (cm) were monitored.

mice [2] = assay: Catalepsy (bar test); type: in vivo, mouse
Procedure: Catalepsy is a state of immobility, and was measured by means of the bar test. The forepaws of the animal were placed on a bar (0.75 cm in diameter and 5 cm above the floor) and the latency until the mouse moved the forepaws off the bar was measured.

mice [3] = assay: Rotarod (forced activity); type: in vivo, mouse
Procedure: Forced activity (Rotarod) was analyzed using the Rotarod apparatus (Jones and Roberts 7650, Ugo Basile, Italy). Animals were placed on an accelerating rod, and time required for each mouse to fall from the rod was recorded. Out of three trails, the longest time taken for an animal to fall from the rod was recorded and used for analysis.

[4] = tested on: MK-801 treated C57BL/6J mice; assay: PPI in the MK-801 drug-induced model of schizophrenia; type: in vivo, mouse
Procedure: MK-801 (Sigma) was used at 0.1 mg/kg and administered 15 min prior to the PPI analysis.
(§1) Acoustic startle response testing was performed within startle chambers purchased from Med Associates, Inc. (Med Associates, St. Albans, Vt., USA), as described in Cardon et al., 2010. During a period of acclimation, a 65-decibel (dB) background noise was presented for 5-min, and continued throughout the test session. All sessions for testing of acoustic startle response consisted of startle trials (pulse alone, 40-milliseconds (ms), 120-dB), prepulse trials (prepulse 20-ms, 69, 73, 78, or 81 dB followed by a [100-ms delay] pulse), and no-stimulus trials. All sessions were presented in pseudo-random order. The average time between trials was 15 seconds (range 12-30 seconds). Startle response was calculated from the reaction to the first pulse-alone trial.
(§2) PPI was calculated as: % PPI=100−{[(startle response for prepulse+pulse)/(startle response for pulse-alone)]×100}. Reduced PPI indicates schizophrenia-related behavior.
MK-801 (an antagonist of the N-methyl-D-aspartate (NMDA) receptor channel) acts as a psychomimetic agent, inducing psychotic symptoms that mimic the cognitive impairment and behavioral abnormalities associated with schizophrenia.
The neurotransmitter imbalance induced by MK-801 causes PPI dysfunction, one of the characteristic features of patients with schizophrenia. In an experiment depicted in FIG. 2, C57BL/6J mice were injected with Kp-10 (13 μg/mouse, light gray bars), or with Peptides 6 (8.75 μg/mouse, medium gray bars) or 8 (8.75 μg/mouse, dark gray bars) dissolved in DMSO and then diluted in PBS to a final concentration of 0.2% (w/v) DMSO; the control group received 0.2% DMSO in PBS (black bars). After 15 min, MK-801 (0.1 mg/kg) was injected; 15 min later, measurement of the PPI was performed.

mice [5] = assay: Sedative effect (sedative score); conditions: data not shown
Procedure: Sedative effect was evaluated by observing the mice and scoring their sedative state as follows: 0, spontaneous movement; 1, mild intermittent spontaneous movement; 2, severe intermittent spontaneous movement; 3, no spontaneous movement; 4, loss of auditory reflex; 5, loss of corneal reflex; 6, loss of response to tail pinch.
Sedative effect was evaluated by observing the animal using a sedative score.

[6] = Plasma stability (HPLC, Cerep); type: in vitro ADME; conditions: 1 μM in human plasma
Procedure: 1 μM Peptide 6 was dissolved in human plasma, and peptide concentration was analyzed by HPLC after 0, 0.5, 1, 1.5, 2 h of incubation. The assay was performed by Cerep, Inc (Redmond, Wash., U.S.A).

C57Bl/6J naïve mice = assay: Acoustic startle response / prepulse inhibition (PPI) in naïve mice; type: in vivo, mouse; conditions: 30 min before test, prepulse 69, 73, 78 or 81 dB
Procedure: as §1, §2
To test Peptide 2 (SEQ ID NO: 10), the peptide was dissolved in DMSO and then diluted in PBS to a final concentration of 1% (w/v) DMSO. Male C57Bl/6J naïve mice were injected intraperitoneally with 15 μg of the peptide or with 1% DMSO in PBS (control). Prepulse intensity analysis was performed after 30 minutes at 69, 73, 78 or 81 decibels. […]

several mouse models = conditions: Kp-10, WO 2010/137022; cited from earlier work
[7] = tested on: SCID mice that have impaired PPI response and several schizophrenia mouse models; conditions: Kp-10 administration, WO 2010/137022; cited from earlier work
naïve mice = conditions: Kp-10, WO 2010/137022 (FIG. 10C); dose equivalent to 0.29 mg/kg Peptide 6; cited from earlier work
BDNF mRNA = conditions: hippocampal slices (Arai et al., 2009); cited from earlier work
[8] = Kp-10, after 60 min (Chan et al., 2011); cited from earlier work
[9] = 13 μg/mouse, MK-801 0.1 mg/kg after 15 min, PPI 15 min later

O=C(CCCN1CCC(O)(c2ccc(Cl)cc2)CC1)c1ccc(F)cc1 [Haloperidol]
spontaneous activity in the open field (mice [1]; 1 mg/kg i.p.): reduced mice activity
catalepsy effect (mice [2]; 1 mg/kg i.p.): had catalepsy effects
forced activity in the Rotarod (mice [3]; 1 mg/kg i.p.): reduced mice activity

C[C@]12N[C@H](Cc3ccccc31)c1ccccc12 [MK-801]
PPI response compared to PBS injected control ([4]; MK-801 alone 0.1 mg/kg, 15 min before PPI): the PPI response was reduced compared to the PBS injected control

Cc1cc2c(s1)Nc1ccccc1N=C2N1CCN(C)CC1 [Olanzapine]
highest dose that can be injected without causing sedative effects (chosen dose) (mice [5]): 0.375 mg/kg

CC(C)C[C@@H]1NC(=O)CNC(=O)[C@H](Cc2ccccc2)NC(=O)[C@@H](N)Cc2ccc(cc2)N=Nc2cc(ccc2O)C[C@@H](C(N)=O)NC(=O)[C@H](Cc2c[nH]c3ccccc23)NC(=O)[C@H](CCCNC(=N)N)NC1=O [Peptide 6, Pap-Phe-Gly-Leu-Arg-Trp-Tyr-NH2]
% Mean Compound Remaining ([6]; incubation time 0 minutes): 100.0%
remaining at 0.5 h, 1 μM ([6]; incubation time 30 minutes, read-out: % Mean Compound Remaining): 119%
% Mean Compound Remaining ([6]; incubation time 60 minutes): 94%
remaining at 1 h, 1 μM ([6]; incubation time 60 minutes, read-out: % Mean Compound Remaining): 93.7%
remaining at 1.5 h, 1 μM ([6]; incubation time 90 minutes, read-out: % Mean Compound Remaining): 97.2%
remaining at 2 h, 1 μM ([6]; incubation time 120 minutes, read-out: % Mean Compound Remaining): 71.8%
half-life ([6]; read-out: calculated half-life): > 2 h
spontaneous activity in the open field (mice [1]; 0.29 and 2.9 mg/kg i.p.): did not affect activity level
catalepsy effect (mice [2]; 0.29 and 2.9 mg/kg i.p.): did not have catalepsy effect at either dosage tested
forced activity in the Rotarod (mice [3]; 0.29 and 2.9 mg/kg i.p.): did not affect activity level

Cc1nc2n(c(=O)c1CCN1CCC(c3noc4cc(F)ccc34)CC1)CCCC2 [Risperidone]
highest dose that can be injected without causing sedative effects (chosen dose) (mice [5]): 0.1 mg/kg
PPI in MK-801 treated mice ([4]; 0.1 mg/kg i.p. with MK-801 (FIG. 4B)): elevated PPI in the MK-801 treated mice

Peptide 2: cystine (S—S) cyclic modified Kp-10 derived peptide, used for comparison only (CYNWNSFGLRFC-NH2; disulfide 1-12; N-terminus assumed; SMILES CC(C)C[C@@H]1NC(=O)CNC(=O)[C@H](Cc2ccccc2)NC(=O)[C@H](CO)NC(=O)[C@H](CC(N)=O)NC(=O)[C@H](Cc2c[nH]c3ccccc23)NC(=O)[C@H](CC(N)=O)NC(=O)[C@H](Cc2ccc(O)cc2)NC(=O)[C@@H](N)CSSC[C@@H](C(N)=O)NC(=O)[C@H](Cc2ccccc2)NC(=O)[C@H](CCCNC(=N)N)NC1=O)
% PPI relative to controls (C57Bl/6J naïve mice; 15 μg peptide i.p. in 1% DMSO in PBS): slightly improved the % PPI relative to controls, however, the effect was not significant; also recorded: did not significantly improve the PPI response

Peptide 5: cystine (S—S) cyclic modified Kp-10 derived peptide, used for comparison only (CFGLRWC-NH2; disulfide 1-7; N-terminus assumed; SMILES CC(C)C[C@@H]1NC(=O)CNC(=O)[C@H](Cc2ccccc2)NC(=O)[C@@H](N)CSSC[C@@H](C(N)=O)NC(=O)[C@H](Cc2c[nH]c3ccccc23)NC(=O)[C@H](CCCNC(=N)N)NC1=O)
% PPI relative to controls (C57Bl/6J naïve mice; 8.3 μg peptide i.p. in 1% DMSO in PBS): slightly improved the % PPI at 73, 78 and 81 decibels relative to controls, however, the effect was not significant; also recorded: did not significantly improve the PPI response

YNWNSFGLRF-NH2 [Kp-10]
spatial learning and memory in a water maze (several mouse models): improves spatial learning and memory in a water maze
PPI response levels [7]: improved PPI response levels
antidepressant effect / total immobility in tail suspension test (naïve mice): antidepressant effect; also recorded: potential anti-depressive activity; also recorded: reduced the total immobility
BDNF mRNA levels (BDNF mRNA): elevate BDNF mRNA levels
level after 60 min [8]: below detectable level
PPI compared to MK-801 treated animals [4, 9]: significantly improved PPI compared to the MK-801 treated animals; also recorded: significantly improved PPI compared to animals treated only with MK-801
PPI compared to control without MK-801 (restoration to normal) [4, 9]: improved PPI after MK-801 administration but did not abolish its affect
